In patent US9890124B2, “Benzazepine sulfonamide compounds” (Hoffmann-La Roche Inc., priority 2015, dated 2018):

Assays:
human TLR8 = human TLR8 (Homo sapiens (Human), UniProt Q9NR97); assay: HEK-Blue human TLR8 cells NF-κB SEAP reporter assay; format: cell-based; conditions: stimulation for 20 hours
From the text: (§1) For TLR8 and TLR7 activity testing, HEK-Blue human TLR8 or TLR7 cells (Invivogen, San Diego, Calif., USA) are used, respectively. These cells are designed for studying the stimulation of human TLR8 or TLR7 by monitoring the activation of NF-κB. A SEAP (secreted embryonic alkaline phosphatase) reporter gene is placed under the control of the IFN-b minimal promoter fused to five NF-κB and AP-1-binding sites. Therefore the reporter expression is regulated by the NF-κB promoter upon stimulation of human TLR8 or TLR7 for 20 hours. The cell culture supernatant SEAP reporter activity was determined using Quanti Blue kit (Invivogen, San Diego, Calif., USA) at a wavelength of 640 nm, a detection medium that turns purple/blue in the presence of alkaline phosphatase. EC50 values were determined using Activity Base analysis (ID Business Solution, Limited).

human TLR7 = human TLR7 (Homo sapiens (Human), UniProt Q9NYK1); assay: HEK-Blue human TLR7 cells NF-κB SEAP reporter assay; format: cell-based; conditions: stimulation for 20 hours
From the text: as §1

Chain of human TLR7 (Q9NYK1 27-1049): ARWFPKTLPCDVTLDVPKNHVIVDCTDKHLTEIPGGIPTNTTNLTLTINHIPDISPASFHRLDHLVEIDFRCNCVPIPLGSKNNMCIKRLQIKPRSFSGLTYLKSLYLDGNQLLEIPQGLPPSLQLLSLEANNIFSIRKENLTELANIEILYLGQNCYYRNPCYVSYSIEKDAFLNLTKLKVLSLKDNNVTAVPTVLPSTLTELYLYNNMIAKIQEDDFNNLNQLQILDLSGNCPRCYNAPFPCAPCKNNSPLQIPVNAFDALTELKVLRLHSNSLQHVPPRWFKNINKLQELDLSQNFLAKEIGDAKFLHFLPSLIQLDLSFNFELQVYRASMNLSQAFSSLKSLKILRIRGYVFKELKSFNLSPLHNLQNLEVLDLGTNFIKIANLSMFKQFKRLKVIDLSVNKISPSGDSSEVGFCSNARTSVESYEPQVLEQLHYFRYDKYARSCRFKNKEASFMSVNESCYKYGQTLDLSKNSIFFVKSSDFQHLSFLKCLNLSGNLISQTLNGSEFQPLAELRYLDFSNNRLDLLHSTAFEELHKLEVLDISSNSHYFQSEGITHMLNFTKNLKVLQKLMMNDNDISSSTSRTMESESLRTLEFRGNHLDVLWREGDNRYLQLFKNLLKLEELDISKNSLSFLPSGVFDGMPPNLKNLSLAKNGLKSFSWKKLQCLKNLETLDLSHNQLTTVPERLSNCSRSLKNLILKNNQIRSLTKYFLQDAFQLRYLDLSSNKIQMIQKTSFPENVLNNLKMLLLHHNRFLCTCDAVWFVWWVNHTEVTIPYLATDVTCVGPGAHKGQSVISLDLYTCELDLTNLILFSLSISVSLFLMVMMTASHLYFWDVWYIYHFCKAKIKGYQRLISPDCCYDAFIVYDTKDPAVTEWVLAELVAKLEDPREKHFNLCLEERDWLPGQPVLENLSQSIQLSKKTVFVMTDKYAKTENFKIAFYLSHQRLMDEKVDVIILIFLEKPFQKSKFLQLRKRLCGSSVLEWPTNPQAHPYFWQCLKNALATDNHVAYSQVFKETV
Chain of human TLR8 (Q9NR97 27-1041): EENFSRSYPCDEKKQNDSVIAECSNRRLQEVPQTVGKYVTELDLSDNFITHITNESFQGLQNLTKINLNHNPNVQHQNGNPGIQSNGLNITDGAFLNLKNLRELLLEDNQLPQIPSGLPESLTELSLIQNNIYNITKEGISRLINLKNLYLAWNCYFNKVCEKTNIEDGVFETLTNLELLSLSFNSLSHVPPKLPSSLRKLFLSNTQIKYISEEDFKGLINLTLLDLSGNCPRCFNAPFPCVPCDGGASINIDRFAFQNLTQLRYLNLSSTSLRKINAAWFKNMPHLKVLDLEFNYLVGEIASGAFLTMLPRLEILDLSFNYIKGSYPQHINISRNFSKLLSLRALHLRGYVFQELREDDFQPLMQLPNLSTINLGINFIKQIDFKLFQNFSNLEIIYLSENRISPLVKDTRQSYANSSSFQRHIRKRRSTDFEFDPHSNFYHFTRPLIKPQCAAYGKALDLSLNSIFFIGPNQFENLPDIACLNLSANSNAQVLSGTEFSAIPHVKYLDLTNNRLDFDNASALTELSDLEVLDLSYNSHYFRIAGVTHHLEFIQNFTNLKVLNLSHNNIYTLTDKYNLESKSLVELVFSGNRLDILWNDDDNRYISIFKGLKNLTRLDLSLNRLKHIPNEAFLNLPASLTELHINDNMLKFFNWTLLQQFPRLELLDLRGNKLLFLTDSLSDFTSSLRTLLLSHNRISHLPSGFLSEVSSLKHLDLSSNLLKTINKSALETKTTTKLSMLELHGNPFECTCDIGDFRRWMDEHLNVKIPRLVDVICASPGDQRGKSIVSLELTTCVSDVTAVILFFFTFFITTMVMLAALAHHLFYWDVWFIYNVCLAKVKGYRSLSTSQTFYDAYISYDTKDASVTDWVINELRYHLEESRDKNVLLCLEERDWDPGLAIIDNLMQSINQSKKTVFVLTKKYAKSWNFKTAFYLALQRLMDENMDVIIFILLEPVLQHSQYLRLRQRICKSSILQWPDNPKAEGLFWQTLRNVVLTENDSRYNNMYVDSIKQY

| EC50 (human TLR8) [nM] | EC50 (human TLR7) [nM] | SMILES |
| --- | --- | --- |
| 6 | 13000 | CCCN(CCC)C(=O)C1=Cc2ccc(-c3cc(C)cc(S(=O)(=O)N4CC[C@@H](O)C4)c3)cc2N=C(N)C1 [Example 23, 2-Amino-8-[3-[(3R)-3-hydroxypyrrolidin-1-yl]sulfonyl-5-methyl-phenyl]-N,N-dipropyl-3H-1-benzazepine-4-carboxamide] |
| 17 | 5000 | CCCN(CCC)C(=O)C1=Cc2ccc(-c3cncc(S(=O)(=O)N4CCNCC4)c3)cc2N=C(N)C1 [Example 20, 2-Amino-8-(5-piperazin-1-ylsulfonyl-3-pyridyl)-N,N-dipropyl-3H-1-benzazepine-4-carboxamide] |
| 6 | > 100000 | CCCN(CCC)C(=O)C1=Cc2ccc(-c3cccc(S(=O)(=O)N4CCC[C@H](O)C4)c3)cc2N=C(N)C1 [Example 18, 2-Amino-8-[3-[[(3S)-3-hydroxy-1-piperidyl]sulfonyl]phenyl]-N,N-dipropyl-3H-1-benzazepine-4-carboxamide] |
| 9 | 14000 | CCCN(CCC)C(=O)C1=Cc2ccc(-c3cccc(S(=O)(=O)N4CC[C@@H](O)C4)c3C)cc2N=C(N)C1 [Example 19, 2-Amino-8-[3-[(3R)-3-hydroxypyrrolidin-1-yl]sulfonyl-2-methyl-phenyl]-N,N-dipropyl-3H-1-benzazepine-4-carboxamide] |
| 31 | 17000 | CCCN(CCC)C(=O)C1=Cc2ccc(-c3cncc(S(=O)(=O)N4CCC(N)C4)c3)cc2N=C(N)C1 (stereo not shown) [Example 22, 2-Amino-8-[5-(3-aminopyrrolidin-1-yl)sulfonyl-3-pyridyl]-N,N-dipropyl-3H-1-benzazepine-4-carboxamide] |
| 18 | > 100000 | CCCN(CCC)C(=O)C1=Cc2ccc(-c3cccc(S(=O)(=O)N4CCNCC4)c3)cc2N=C(N)C1 [Example 21, 2-Amino-8-(3-piperazin-1-ylsulfonylphenyl)-N,N-dipropyl-3H-1-benzazepine-4-carboxamide] |
| 5 | > 100000 | CCCN(CCC)C(=O)C1=Cc2ccc(-c3cccc(S(=O)(=O)N4CCC[C@@H](O)C4)c3)cc2N=C(N)C1 [Example 17, 2-Amino-8-[3-[[(3R)-3-hydroxy-1-piperidyl]sulfonyl]phenyl]-N,N-dipropyl-3H-1-benzazepine-4-carboxamide] |

The next lines start with the molecule.

| SMILES | EC50 (human TLR8) [nM] | EC50 (human TLR7) [nM] |
| --- | --- | --- |
| CCCN(CCC)C(=O)C1=Cc2ccc(-c3cccc(S(=O)(=O)N(C)CCO)c3)cc2N=C(N)C1 [Example 10, 2-Amino-8-[3-[2-hydroxyethyl(methyl)sulfamoyl]phenyl]-N,N-dipropyl-3H-1-benzazepine-4-carboxamide] | 4 | 20000 |
| CCCN(CCC)C(=O)C1=Cc2ccc(-c3cccc(S(=O)(=O)NCCCCCCO)c3)cc2N=C(N)C1 [Example 12, 2-Amino-8-[3-(6-hydroxyhexylsulfamoyl)phenyl]-N,N-dipropyl-3H-1-benzazepine-4-carboxamide] | 8 | 12000 |
| CCCN(CCC)C(=O)C1=Cc2ccc(-c3cccc(S(=O)(=O)N4CCC(O)C4)c3)cc2N=C(N)C1 (stereo not shown) [Example 5, 2-Amino-8-[3-(3-hydroxypyrrolidin-1-yl)sulfonylphenyl]-N,N-dipropyl-3H-1-benzazepine-4-carboxamide] | 3 | 103000 |
| CCCN(CCC)C(=O)C1=Cc2ccc(-c3ccc(OC)c(S(=O)(=O)N4CC[C@@H](O)C4)c3)cc2N=C(N)C1 [Example 15, 2-Amino-8-[3-[(3R)-3-hydroxypyrrolidin-1-yl]sulfonyl-4-methoxy-phenyl]-N,N-dipropyl-3H-1-benzazepine-4-carboxamide] | 4 | 17000 |
| CCCN(CCC)C(=O)C1=Cc2ccc(-c3cc(C(F)(F)F)cc(S(=O)(=O)N4CC[C@@H](O)C4)c3)cc2N=C(N)C1 [Example 14, 2-Amino-8-[3-[(3R)-3-hydroxypyrrolidin-1-yl]sulfonyl-5-(trifluoromethyl)phenyl]-N,N-dipropyl-3H-1-benzazepine-4-carboxamide] | 9 | > 100000 |
| CCCN(CCC)C(=O)C1=Cc2ccc(-c3cccc(S(=O)(=O)N4CC(O)C4)c3)cc2N=C(N)C1 [Example 9, 2-Amino-8-[3-(3-hydroxyazetidin-1-yl)sulfonylphenyl]-N,N-dipropyl-3H-1-benzazepine-4-carboxamide] | 5 | 17000 |
| CCCN(CCC)C(=O)C1=Cc2ccc(-c3cccc(S(=O)(=O)N4CC(CO)C4)c3)cc2N=C(N)C1 [Example 16, 2-Amino-8-[3-[3-(hydroxymethyl)azetidin-1-yl]sulfonylphenyl]-N,N-dipropyl-3H-1-benzazepine-4-carboxamide] | 2 | 26000 |
| CCCN(CCC)C(=O)C1=Cc2ccc(-c3cccc(S(=O)(=O)N4CC[C@@H](O)C4)c3)cc2N=C(N)C1 [Example 7, 2-Amino-8-[3-[(3R)-3-hydroxypyrrolidin-1-yl]sulfonylphenyl]-N,N-dipropyl-3H-1-benzazepine-4-carboxamide] | 5 | 18000 |
| CCCN(CCC)C(=O)C1=Cc2ccc(-c3ccc(S(=O)(=O)N4CCC(O)C4)cc3)cc2N=C(N)C1 (stereo not shown) [Example 6, 2-Amino-8-[4-(3-hydroxypyrrolidin-1-yl)sulfonylphenyl]-N,N-dipropyl-3H-1-benzazepine-4-carboxamide] | 10 | 104000 |
| CCCN(CCC)C(=O)C1=Cc2ccc(-c3cccc(S(=O)(=O)NCCO)c3)cc2N=C(N)C1 [Example 2, 2-Amino-8-[3-(2-hydroxyethylsulfamoyl)phenyl]-N,N-dipropyl-3H-1-benzazepine-4-carboxamide] | 6 | 7000 |
| CCCN(CCC)C(=O)C1=Cc2ccc(-c3cccc(S(=O)(=O)N4CCCC4)c3)cc2N=C(N)C1 [Example 3, 2-amino-N,N-dipropyl-8-(3-pyrrolidin-1-ylsulfonylphenyl)-3H-1-benzazepine-4-carboxamide] | 6 | > 100000 |
| CCCN(CCC)C(=O)C1=Cc2ccc(-c3cccc(S(=O)(=O)N4CCC(O)CC4)c3)cc2N=C(N)C1 [Example 13, 2-Amino-8-[3-[(4-hydroxy-1-piperidyl)sulfonyl]phenyl]-N,N-dipropyl-3H-1-benzazepine-4-carboxamide] | 4 | 17000 |
| CCCN(CCC)C(=O)C1=Cc2ccc(-c3cccc(S(N)(=O)=O)c3)cc2N=C(N)C1 [Example 1, 2-Amino-N,N-dipropyl-8-(3-sulfamoylphenyl)-3H-1-benzazepine-4-carboxamide] | 6 | 3000 |
| CCCN(CCC)C(=O)C1=Cc2ccc(-c3cccc(S(=O)(=O)N4CC[C@H](O)C4)c3)cc2N=C(N)C1 [Example 8, 2-Amino-8-[3-[(3S)-3-hydroxypyrrolidin-1-yl]sulfonylphenyl]-N,N-dipropyl-3H-1-benzazepine-4-carboxamide] | 5 | 24000 |
| CCCN(CCC)C(=O)C1=Cc2ccc(-c3cccc(S(=O)(=O)NCCOCCO)c3)cc2N=C(N)C1 [Example 11, 2-Amino-8-[3-[2-(2-hydroxyethoxy)ethylsulfamoyl]phenyl]-N,N-dipropyl-3H-1-benzazepine-4-carboxamide] | 8 | 12000 |
| CCCN(CCC)C(=O)C1=Cc2ccc(-c3cncc(S(N)(=O)=O)c3)cc2N=C(N)C1 [Example 4, 2-Amino-N,N-dipropyl-8-(5-sulfamoyl-3-pyridyl)-3H-1-benzazepine-4-carboxamide] | 23 | 5000 |
